Assay results taken from publication PMC6332448, “SAR Studies Leading to the Identification of a Novel Series of Metallo-β-lactamase Inhibitors for the Treatment of Carbapenem-Resistant Enterobacteriaceae Infections That Display Efficacy in an Animal Infection Model” (ACS Infectious Diseases, 2018).
≈ marks a conversion by molar mass, not a printed value. Where “and” joins values, the source holds several entries; their conditions need not be identical. Identical values can stand only once. Like-named read-outs stand apart in the source and are kept apart here.

Legend:
NDM-1 = NDM-1 (Klebsiella pneumoniae, UniProt C7C422); test: biochemical; assay type: biochemical; conditions: for IC50: 10 mM HEPES pH 7.5, 25 °C, average of at least two independent assays; for inhibition of NDM-1, in words: tested up to 200 μM
Sequence of NDM-1 (C7C422 29-270, looked up, species assumed): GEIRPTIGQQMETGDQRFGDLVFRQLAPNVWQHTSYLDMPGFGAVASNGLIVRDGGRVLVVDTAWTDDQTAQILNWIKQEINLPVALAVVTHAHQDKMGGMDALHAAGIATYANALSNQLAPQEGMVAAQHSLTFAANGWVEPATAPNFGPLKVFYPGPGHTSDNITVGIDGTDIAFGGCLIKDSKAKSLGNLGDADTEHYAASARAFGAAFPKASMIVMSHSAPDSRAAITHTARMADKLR

VIM-1 = VIM-1 (Pseudomonas aeruginosa, UniProt A0A0F7KYQ8); test: biochemical; assay type: biochemical; conditions: for inhibition of VIM-1, in words: tested up to 200 μM
IMP-1 = IMP-1 (Serratia marcescens, UniProt P52699); test: biochemical; assay type: biochemical; conditions: for inhibition of IMP-1, in words: tested up to 200 μM
Sequence of IMP-1 (P52699 19-246, looked up, species assumed): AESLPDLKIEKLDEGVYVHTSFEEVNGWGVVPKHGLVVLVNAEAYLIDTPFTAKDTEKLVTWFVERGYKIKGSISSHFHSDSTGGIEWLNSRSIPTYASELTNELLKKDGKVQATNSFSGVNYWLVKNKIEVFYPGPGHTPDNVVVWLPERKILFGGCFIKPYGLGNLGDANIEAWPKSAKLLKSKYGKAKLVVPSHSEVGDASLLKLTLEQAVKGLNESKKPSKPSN

[1] = tested on: NDM-1-producing strain Escherichia coli NTBC121; test: Whole-cell meropenem potentiation, CLSI broth microdilution MIC; assay type: cell-based; conditions: for MICMEM (meropenem MIC in presence of inhibitor) vs NTBC121: inhibitor present at 100 μM, meropenem alone 32 μg/mL; for potentiation efficiency (PE = MIC/IC50): potentiated meropenem MIC vs E. coli NTBC121 divided by NDM-1 IC50
Description: (§1) Minimal inhibitory concentrations (MIC) were determined using the Clinical Laboratory Standards Institute (CLSI) broth microdilution procedure. MBL-positive Enterobacteriaceae clinical isolates tested in the susceptibility study included NDM-1-producing strain E. coli NTBC121, VIM-1-producing strain K. pneumoniae NTBC055, and IMP-1-producing strain K. pneumoniae NTBC062. (Individual MICs for all strains tested are presented in Table 2 and Table 1 in the Supporting Information).

[2] = tested on: VIM-1-producing strain Klebsiella pneumoniae NTBC055; test: as above; assay type: cell-based; conditions: K. pneumoniae NTBC055 (VIM-1); for MICMEM (meropenem MIC in presence of inhibitor) vs NTBC055: inhibitor present at 100 μM, meropenem alone 16 μg/mL
Description: as §1

[3] = tested on: IMP-1-producing strain K. pneumoniae NTBC062; test: as above; assay type: cell-based, Klebsiella pneumoniae; conditions: K. pneumoniae NTBC062 (IMP-1); for MICMEM (meropenem MIC in presence of inhibitor) vs NTBC062: inhibitor present at 100 μM, meropenem alone 4 μg/mL
Description: as §1

[4] = Kinetic solubility in PBS pH 7.4; assay type: physicochemical; conditions: phosphate-buffered saline, pH 7.4, aqueous buffer, thermodynamic from solid
Description: This was determined by vigorous stirring (1200 rpm) of a 20 mg/mL mixture of the test compound in phosphate-buffered saline (PBS) at pH 7.4 for 4 h. The mixture was then centrifuged for 20 min at 10 000 rpm and the supernatant further processed by filtration. The concentration of the test compound in the filtrate was then determined by high-performance liquid chromatography (UV analysis) by comparison to a standard calibration curve of the test compound.

VIM-2 [5] = target: T1, VIM-2 (Escherichia coli, UniProt Q5U7L7); test: biochemical
VIM-2 [6] = target: T1, VIM-2; conditions: tested up to 200 μM
[7] = 300 μM imipenem, read-out: NDM-1 IC50
[8] = 300 μM imipenem, 10 mM HEPES pH 7.5, 25 °C, average of at least two independent assays, read-out: VIM-1 IC50
[9] = 300 μM imipenem, 10 mM HEPES pH 7.5, 25 °C, average of at least two independent assays, read-out: IMP-1 IC50
[10] = Klebsiella pneumoniae, no inhibitor

| SMILES | IC50 (NDM-1; NDM-1 IC50, 300 μM imipenem) | IC50 (VIM-1) | IC50 (IMP-1) | MICMEM (meropenem MIC in presence of inhibitor) vs NTBC121 ([1]; E. coli NTBC121 (NDM-1)) | MICMEM (meropenem MIC in presence of inhibitor) vs NTBC055 [2] | MICMEM (meropenem MIC in presence of inhibitor) vs NTBC062 [3] | IC50 (VIM-2 [5]) | further results |
| --- | --- | --- | --- | --- | --- | --- | --- | --- |
| N#Cc1cccc(CS(=O)(=O)Nc2scnc2C(=O)O)c1 [Compound 66] | 8.82 µM | 54.2 µM | 2.51 µM | 2 µg/mL | 0.5 µg/mL | 1 µg/mL | – | – |
| O=C(O)c1ncsc1NS(=O)(=O)c1ccccc1 [Compound 62] | 4.5 µM | > 200 µM | 58.2 µM | 0.125 µg/mL | 0.5 µg/mL | 1 µg/mL | 6.2 µM | improvement in potentiation over that expected from enzyme inhibition alone ([1]; 62 (thiazolyl) versus 61 (pyridyl), from PE values): 10 fold; potentiation efficiency (PE = MIC/IC50) [1]: 0.027; solubility at 4 h ([4]; acid form, read-out: solubility): 1.1 mg/mL (≈ 3.87 mM); solubility at 4 h ([4]; sodium salt, read-out: solubility (Na salt)): 18.9 mg/mL |
| O=C(O)c1ncccc1NS(=O)(=O)Cc1cccc(C(F)(F)F)c1 [Compound 40] | – | – | – | 16 µg/mL | 2 µg/mL | 1 µg/mL | – | IC50 (NDM-1; [7]): 17.9 µM; IC50 (VIM-1; [8]): 71.6 µM; IC50 (IMP-1; [9]): > 200 µM |
| O=C(O)c1ncccc1NS(=O)(=O)c1ccccc1 [Compound 61] | – | – | – | 16 µg/mL | 4 µg/mL | 4 µg/mL | – | IC50 (NDM-1; read-out: NDM-1 IC50, 300 μM imipenem): 49.9 µM; IC50 (VIM-1; read-out: VIM-1 IC50, 300 μM imipenem, 10 mM HEPES pH 7.5, 25 °C, average of at least two independent assays): > 200 µM; IC50 (IMP-1; read-out: IMP-1 IC50, 300 μM imipenem, 10 mM HEPES pH 7.5, 25 °C, average of at least two independent assays): > 200 µM; potentiation efficiency (PE = MIC/IC50) [1]: 0.32 |
| O=C(O)c1ncsc1NS(=O)(=O)Cc1ccc(Cl)c(Cl)c1 [Compound 70] | 7.88 µM | 37.9 µM | 3.55 µM | 2 µg/mL | 1 µg/mL | 1 µg/mL | – | – |
| O=C(O)c1ncccc1NS(=O)(=O)Cc1ccc(Cl)cc1Cl [Compound 41] | – | – | – | 16 µg/mL | 1 µg/mL | 1 µg/mL | – | IC50 (NDM-1; [7]): 80.6 µM; IC50 (VIM-1; [8]): 17.5 µM; IC50 (IMP-1; [9]): 74.3 µM |
| O=C(O)c1ncsc1NS(=O)(=O)Cc1ccc(Cl)cc1Cl [Compound 72] | 2.1 µM | 7 µM | 0.5 µM | 0.5 µg/mL | 0.5 µg/mL | 0.5 µg/mL | – | – |
| O=C(O)c1ncsc1NS(=O)(=O)Cc1ccccc1Cl [Compound 68] | 2.32 µM | 6.72 µM | 1.75 µM | 0.5 µg/mL | 0.25 µg/mL | 0.5 µg/mL | – | – |
| O=C(O)c1ncsc1NS(=O)(=O)c1ccccn1 [Compound 75] | 12.9 µM | > 200 µM | 114 µM | – | – | – | 16.1 µM | – |
| O=C(O)c1ncsc1NS(=O)(=O)Cc1ccccc1 [Compound 64] | 2.53 µM | 62.7 µM | 1.83 µM | 0.5 µg/mL | 0.5 µg/mL | 0.5 µg/mL | – | – |
| O=C(O)c1ncccc1NS(=O)(=O)Cc1ccccc1Cl [Compound 39] | – | – | – | 16 µg/mL | 0.5 µg/mL | 1 µg/mL | – | IC50 (NDM-1; [7]): 32.6 µM; IC50 (VIM-1; [8]): 10.9 µM; IC50 (IMP-1; [9]): 20.9 µM |
| O=C(O)c1ncccc1-c1ccncc1 [Compound 12] | > 200 µM | > 200 µM | > 200 µM | – | – | – | > 200 µM | – |
| C[C@@H](O)[C@H]1C(=O)N2C(C(=O)O)=C(S[C@@H]3CN[C@H](C(=O)N(C)C)C3)[C@H](C)[C@H]12 [meropenem, reference compound] | – | – | – | – | – | – | – | MIC ([1]; Escherichia coli, no inhibitor, E. coli NTBC121 (NDM-1)): 32 µg/mL; MIC meropenem (no inhibitor) vs NTBC121 ([1]; no inhibitor, E. coli NTBC121 (NDM-1)): 32 µg/mL; MIC [2, 10]: 16 µg/mL; MIC meropenem (no inhibitor) vs NTBC055 ([2]; no inhibitor): 16 µg/mL; MIC [3, 10]: 4 µg/mL; MIC meropenem (no inhibitor) vs NTBC062 ([3]; no inhibitor): 4 µg/mL |
| Cc1ccc(C(=O)Nc2cccnc2C(=O)O)cc1Cl [Compound 17] | 8.46 µM and 8.5 µM | 95.7 µM | 87.6 µM | – | – | – | 93 µM | inhibition of NDM-1, in words (NDM-1): low micromolar inhibition; inhibition of VIM-1, in words (VIM-1): detectable inhibition; inhibition of IMP-1, in words (IMP-1): detectable inhibition; inhibition of VIM-2, in words (VIM-2 [6]): detectable inhibition |
| O=C(O)c1ncsc1NS(=O)(=O)Cc1cc(Cl)cc(Cl)c1 [Compound 74] | 6.9 µM | 28 µM | 3.2 µM | 2 µg/mL | 0.5 µg/mL | 1 µg/mL | – | – |
| N#Cc1cccc(CS(=O)(=O)Nc2cccnc2C(=O)O)c1 [Compound 65] | 116 µM | > 200 µM | 150 µM | 32 µg/mL | 2 µg/mL | 1 µg/mL | – | – |
| O=C(O)c1ncccc1NS(=O)(=O)Cc1ccccc1 [Compound 63] | > 100 µM | > 100 µM | > 100 µM | 16 µg/mL | 1 µg/mL | 1 µg/mL | – | – |
| O=C(Nc1cccnc1C(=O)O)c1cocn1 [Compound 18] | > 200 µM | > 200 µM | > 200 µM | – | – | – | > 200 µM | inhibition of NDM-1, in words (NDM-1): inactive; inhibition of VIM-1, in words (VIM-1): inactive; inhibition of IMP-1, in words (IMP-1): inactive; inhibition of VIM-2, in words (VIM-2 [6]): inactive |
| O=C(O)c1cccc(-c2ccoc2)n1 [Compound 15] | 163 µM | > 200 µM | > 200 µM | – | – | – | > 200 µM | – |
